Experimental data from US12077503B2, “Substituted cyclic amides and their use as herbicides” (FMC CORPORATION, priority 2015, dated 2024).

Assays:
Assay type in all cases: in vivo
[1] = system: ivy-leaved morning glory (Ipomoea hederacea); assay: Test G Pre-Emergence Protocol; details: Ipomoea, pre-emergence, 312 h, evaluated after 13 days; for pest or weed control at 15.625 g/ha: 15.625 g ai/ha, read-out: Morning-glory, Ivy-leaved damage rating (100=total damage to plant; 0=no damage to plant); for pest or weed control at 62.5 g/ha: 62.5 g ai/ha, 100=total damage to plant, 0=no damage to plant, read-out: plant damage rating, Morningglory, Ivy-leaved; for pest or weed control at 250 g/ha: 250 g ai/ha, read-out: Morningglory, Ivy-leaved damage rating (100=total damage to plant; 0=no damage to plant)
Procedure, shortened: (§1)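 Seeds were sown in standard soil and kept one day in a glasshouse (24/16° C day/night, 14 h light, 65% humidity), then sprayed with compound in acetone/water (50:50) containing 0.5% Tween 20 at 15.625, 62.5 or 250 g/ha. Damage was scored after 13 days (0 = none, 100 = total).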

[2] = system: giant foxtail (Setaria faberi); assay: Test G Pre-Emergence Protocol; details: Setaria faberi, pre-emergence, 312 h, evaluated after 13 days; for pest or weed control at 15.625 g/ha: 15.625 g ai/ha; for pest or weed control at 15.625 g/ha / pest or weed control at 250 g/ha: read-out: Foxtail, Giant damage rating (100=total damage to plant; 0=no damage to plant); for pest or weed control at 62.5 g/ha: 62.5 g ai/ha, 100=total damage to plant, 0=no damage to plant, read-out: plant damage rating, Foxtail, Giant; for pest or weed control at 250 g/ha: 250 g ai/ha
Procedure, shortened: as §1

corn (Zea mays) [3] = assay: Test G Pre-Emergence Protocol; details: Zea mays, pre-emergence, 312 h, evaluated after 13 days; for plant injury at 15.625 g/ha: 15.625 g ai/ha; for plant injury at 15.625 g/ha / plant injury at 250 g/ha: read-out: Corn damage rating (100=total damage to plant; 0=no damage to plant); for plant injury at 62.5 g/ha: 62.5 g ai/ha, 100=total damage to plant, 0=no damage to plant, read-out: plant damage rating, Corn; for plant injury at 250 g/ha: 250 g ai/ha
Procedure, shortened: as §1

[4] = system: redroot pigweed (Amaranthus retroflexus); assay: Test G Pre-Emergence Protocol; details: Amaranthus retroflexus, pre-emergence, 312 h, evaluated after 13 days; for pest or weed control at 15.625 g/ha: 15.625 g ai/ha; for pest or weed control at 15.625 g/ha / pest or weed control at 250 g/ha: read-out: Pigweed, Redroot damage rating (100=total damage to plant; 0=no damage to plant); for pest or weed control at 62.5 g/ha: 62.5 g ai/ha, 100=total damage to plant, 0=no damage to plant, read-out: plant damage rating, Pigweed, Redroot; for pest or weed control at 250 g/ha: 250 g ai/ha
Procedure, shortened: as §1

[5] = system: velvetleaf (Abutilon theophrasti); assay: Test G Pre-Emergence Protocol; details: Abutilon theophrasti, pre-emergence, 312 h, evaluated after 13 days; for pest or weed control at 15.625 g/ha: 15.625 g ai/ha; for pest or weed control at 15.625 g/ha / pest or weed control at 250 g/ha: read-out: Velvetleaf damage rating (100=total damage to plant; 0=no damage to plant); for pest or weed control at 62.5 g/ha: 62.5 g ai/ha, 100=total damage to plant, 0=no damage to plant, read-out: plant damage rating, Velvetleaf; for pest or weed control at 250 g/ha: 250 g ai/ha
Procedure, shortened: as §1

[6] = system: barnyardgrass (Echinochloa crus-galli); assay: Test G Pre-Emergence Protocol; details: Echinochloa crus-galli, pre-emergence, 312 h, evaluated after 13 days; for pest or weed control at 15.625 g/ha: 15.625 g ai/ha, read-out: Barnyard grass damage rating (100=total damage to plant; 0=no damage to plant); for pest or weed control at 62.5 g/ha: 62.5 g ai/ha, 100=total damage to plant, 0=no damage to plant, read-out: plant damage rating, Barnyardgrass; for pest or weed control at 250 g/ha: 250 g ai/ha, read-out: Barnyardgrass damage rating (100=total damage to plant; 0=no damage to plant)
Procedure, shortened: as §1

[7] = system: ivy-leaved morning glory (Ipomoea hederacea); assay: Test G Post-Emergence Protocol; details: Ipomoea, post-emergence, 312 h; for pest or weed control at 15.625 g/ha: 15.625 g ai/ha, evaluated after 13 days (100=total damage to plant; 0=no damage to plant), read-out: Morningglory, Ivy-leaved damage rating; for pest or weed control at 62.5 g/ha: 62.5 g ai/ha, read-out: Morningglory, Ivy-leaved damage rating (100=total damage to plant; 0=no damage to plant); for pest or weed control at 62.5 g/ha / pest or weed control at 250 g/ha: evaluated after 13 days; for pest or weed control at 250 g/ha: 250 g ai/ha, read-out: damage to plant, Morningglory, Ivy-leaved (100=total damage to plant; 0=no damage to plant)
Procedure, shortened: (§2)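 Seedlings grown 8 days in soil in a glasshouse (24/16 °C day/night, 14 h light, 65% humidity) were sprayed post-emergence with compound in acetone/water 50:50 plus 0.5% Tween 20 at 15.625, 62.5 or 250 g/ha. Damage was scored after 13 days on a 0–100 scale (100 = total damage).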

[8] = system: giant foxtail (Setaria faberi); assay: Test G Post-Emergence Protocol; details: Setaria faberi, post-emergence, 312 h; for pest or weed control at 15.625 g/ha: 15.625 g ai/ha, evaluated after 13 days (100=total damage to plant; 0=no damage to plant), read-out: Foxtail, Giant damage rating; for pest or weed control at 62.5 g/ha: 62.5 g ai/ha, read-out: Foxtail, Giant damage rating (100=total damage to plant; 0=no damage to plant); for pest or weed control at 62.5 g/ha / pest or weed control at 250 g/ha: evaluated after 13 days; for pest or weed control at 250 g/ha: 250 g ai/ha, read-out: damage to plant, Foxtail, Giant (100=total damage to plant; 0=no damage to plant)
Procedure, shortened: as §2

corn (Zea mays) [9] = assay: Test G Post-Emergence Protocol; details: Zea mays, post-emergence, 312 h; for plant injury at 15.625 g/ha: 15.625 g ai/ha, evaluated after 13 days (100=total damage to plant; 0=no damage to plant), read-out: Corn damage rating; for plant injury at 62.5 g/ha: 62.5 g ai/ha, read-out: Corn damage rating (100=total damage to plant; 0=no damage to plant); for plant injury at 62.5 g/ha / plant injury at 250 g/ha: evaluated after 13 days; for plant injury at 250 g/ha: 250 g ai/ha, read-out: damage to plant, Corn (100=total damage to plant; 0=no damage to plant)
Procedure, shortened: as §2

[10] = system: redroot pigweed (Amaranthus retroflexus); assay: Test G Post-Emergence Protocol; details: Amaranthus retroflexus, post-emergence, 312 h; for pest or weed control at 15.625 g/ha: 15.625 g ai/ha, evaluated after 13 days (100=total damage to plant; 0=no damage to plant), read-out: Pigweed, Redroot damage rating; for pest or weed control at 62.5 g/ha: 62.5 g ai/ha, read-out: Pigweed, Redroot damage rating (100=total damage to plant; 0=no damage to plant); for pest or weed control at 62.5 g/ha / pest or weed control at 250 g/ha: evaluated after 13 days; for pest or weed control at 250 g/ha: 250 g ai/ha, read-out: damage to plant, Pigweed, Redroot (100=total damage to plant; 0=no damage to plant)
Procedure, shortened: as §2

[11] = system: velvetleaf (Abutilon theophrasti); assay: Test G Post-Emergence Protocol; details: Abutilon theophrasti, post-emergence, 312 h; for pest or weed control at 15.625 g/ha: 15.625 g ai/ha, evaluated after 13 days (100=total damage to plant; 0=no damage to plant), read-out: Velvetleaf damage rating; for pest or weed control at 62.5 g/ha: 62.5 g ai/ha, read-out: Velvetleaf damage rating (100=total damage to plant; 0=no damage to plant); for pest or weed control at 62.5 g/ha / pest or weed control at 250 g/ha: evaluated after 13 days; for pest or weed control at 250 g/ha: 250 g ai/ha, read-out: damage to plant, Velvetleaf (100=total damage to plant; 0=no damage to plant)
Procedure, shortened: as §2

[12] = system: barnyardgrass (Echinochloa crus-galli); assay: Test G Post-Emergence Protocol; details: Echinochloa crus-galli, post-emergence, 312 h; for pest or weed control at 15.625 g/ha: 15.625 g ai/ha, evaluated after 13 days (100=total damage to plant; 0=no damage to plant), read-out: Barnyardgrass damage rating; for pest or weed control at 62.5 g/ha: 62.5 g ai/ha, read-out: Barnyardgrass damage rating (100=total damage to plant; 0=no damage to plant); for pest or weed control at 62.5 g/ha / pest or weed control at 250 g/ha: evaluated after 13 days; for pest or weed control at 250 g/ha: 250 g ai/ha, read-out: damage to plant, Barnyardgrass (100=total damage to plant; 0=no damage to plant)
Procedure, shortened: as §2

Structure (SMILES): CN1C[C@@H](c2ccc(C(F)(F)F)cc2)[C@H](C(=O)Nc2ccn(C)n2)C1=O (racemic) [Compound 1615]
- pest or weed control at 15.625 g/ha [1]: 0%
- pest or weed control at 62.5 g/ha [1]: 0%
- pest or weed control at 250 g/ha [1]: 0%
- pest or weed control at 15.625 g/ha [2]: 0%
- pest or weed control at 62.5 g/ha [2]: 0%
- pest or weed control at 250 g/ha [2]: 0%
- plant injury at 15.625 g/ha (corn (Zea mays) [3]): 0%
- plant injury at 62.5 g/ha (corn (Zea mays) [3]): 0%
- plant injury at 250 g/ha (corn (Zea mays) [3]): 0%
- pest or weed control at 15.625 g/ha [4]: 0%
- pest or weed control at 62.5 g/ha [4]: 0%
- pest or weed control at 250 g/ha [4]: 0%
- pest or weed control at 15.625 g/ha [5]: 0%
- pest or weed control at 62.5 g/ha [5]: 0%
- pest or weed control at 250 g/ha [5]: 0%
- pest or weed control at 15.625 g/ha [6]: 0%
- pest or weed control at 62.5 g/ha [6]: 0%
- pest or weed control at 250 g/ha [6]: 0%
- pest or weed control at 15.625 g/ha [7]: 0%
- pest or weed control at 62.5 g/ha [7]: 0%
- pest or weed control at 250 g/ha [7]: 0%
- pest or weed control at 15.625 g/ha [8]: 0%
- pest or weed control at 62.5 g/ha [8]: 0%
- pest or weed control at 250 g/ha [8]: 0%
- plant injury at 15.625 g/ha (corn (Zea mays) [9]): 0%
- plant injury at 62.5 g/ha (corn (Zea mays) [9]): 0%
- plant injury at 250 g/ha (corn (Zea mays) [9]): 0%
- pest or weed control at 15.625 g/ha [10]: 0%
- pest or weed control at 62.5 g/ha [10]: 0%
- pest or weed control at 250 g/ha [10]: 0%
- pest or weed control at 15.625 g/ha [11]: 0%
- pest or weed control at 62.5 g/ha [11]: 0%
- pest or weed control at 250 g/ha [11]: 0%
- pest or weed control at 15.625 g/ha [12]: 0%
- pest or weed control at 62.5 g/ha [12]: 0%
- pest or weed control at 250 g/ha [12]: 0%

Structure (SMILES): CN1C[C@@H](c2ccc(C(F)(F)F)cc2)[C@H](C(=O)Nc2nnnn2C)C1=O (racemic) [Compound 1618]
- pest or weed control at 15.625 g/ha [1]: 0%
- pest or weed control at 62.5 g/ha [1]: 0%
- pest or weed control at 250 g/ha [1]: 20%
- pest or weed control at 15.625 g/ha [2]: 0%
- pest or weed control at 62.5 g/ha [2]: 0%
- pest or weed control at 250 g/ha [2]: 20%
- plant injury at 15.625 g/ha (corn (Zea mays) [3]): 0%
- plant injury at 62.5 g/ha (corn (Zea mays) [3]): 0%
- plant injury at 250 g/ha (corn (Zea mays) [3]): 20%
- pest or weed control at 15.625 g/ha [4]: 0%
- pest or weed control at 62.5 g/ha [4]: 0%
- pest or weed control at 250 g/ha [4]: 20%
- pest or weed control at 15.625 g/ha [5]: 0%
- pest or weed control at 62.5 g/ha [5]: 0%
- pest or weed control at 250 g/ha [5]: 10%
- pest or weed control at 15.625 g/ha [6]: 0%
- pest or weed control at 62.5 g/ha [6]: 0%
- pest or weed control at 250 g/ha [6]: 10%
- pest or weed control at 15.625 g/ha [7]: 0%
- pest or weed control at 62.5 g/ha [7]: 0%
- pest or weed control at 250 g/ha [7]: 0%
- pest or weed control at 15.625 g/ha [8]: 0%
- pest or weed control at 62.5 g/ha [8]: 0%
- pest or weed control at 250 g/ha [8]: 0%
- plant injury at 15.625 g/ha (corn (Zea mays) [9]): 0%
- plant injury at 62.5 g/ha (corn (Zea mays) [9]): 0%
- plant injury at 250 g/ha (corn (Zea mays) [9]): 0%
- pest or weed control at 15.625 g/ha [10]: 0%
- pest or weed control at 62.5 g/ha [10]: 0%
- pest or weed control at 250 g/ha [10]: 0%
- pest or weed control at 15.625 g/ha [11]: 0%
- pest or weed control at 62.5 g/ha [11]: 0%
- pest or weed control at 250 g/ha [11]: 0%
- pest or weed control at 15.625 g/ha [12]: 0%
- pest or weed control at 62.5 g/ha [12]: 0%
- pest or weed control at 250 g/ha [12]: 0%
